Experiments:
Format in all cases: in vivo, mouse
[1] = Plasma triglycerides, cholesterol, free fatty acids, transaminases and lactate in db/db mice (Table 7)
Protocol: Seven-week old male C57B1/6J-Lepr db/db mice (Jackson Laboratory, Bar Harbor, Me.) were fed a diet with a fat content of about 14% (Formulab Diet 5008) and were subcutaneously injected with ISIS 116847 (SEQ ID NO: 143), ISIS 141923 (SEQ ID NO: 144), or ISIS 148985 (SEQ ID NO: 118), an antisense inhibitor of glucose-6-phosphatase translocase, […] weeks. […] Saline-injected animals served as controls. 48 hours after the eighth and final dose was administered, mice were sacrificed and target levels were evaluated in liver. RNA isolation and target mRNA expression level quantitation were performed as described by other examples herein.
To further assess the physiological effects resulting from inhibition of target mRNA, the db/db mice were evaluated at the end of the treatment period for plasma triglycerides, plasma cholesterol, free fatty acids (FFA), lactate and plasma transaminase levels. The transaminases ALT and AST are indicators of liver function. Plasma triglycerides, cholesterol, free fatty acids, and transaminases were measured by routine clinical analyzer instruments (e.g. Olympus Clinical Analyzer, Melville, N.Y.). Results are presented in table 7 as the averages from seven animals per treatment group.

[2] = system: glucose-6-phosphatase translocase mRNA; experiment: Target mRNA reduction in liver of ob/ob mice; conditions: 25 mg/kg s.c. twice weekly, eight doses
Protocol: Seven-week old male C57B1/6J-Lep ob/ob mice (Jackson Laboratory, Bar Harbor, Me.) were fed a diet with a fat content of about 22% and were subcutaneously injected with oligonucleotides at a dose of 25 mg/kg two times per week. A total of eight doses were administered. Glucose-6-phosphatase translocase antisense oligonucleotides used were ISIS 148985 (SEQ ID NO: 118) and ISIS 149008 (SEQ ID NO: 141). […]; incorporated herein as SEQ ID NO: 143), targeted to mouse PTEN, was used as a positive control. Saline-injected animals served as negative controls. […] Glucose-6-phosphatase translocase mRNA levels in ob/ob mouse livers were measured at the end of the study using RIBOGREENTM RNA quantification reagent (Molecular Probes, Inc. Eugene, Oreg.) as taught in previous examples above.

ob/ob mice [3] = experiment: Fed and fasted plasma glucose in ob/ob mice; conditions: 25 mg/kg s.c. twice weekly; for fasted plasma glucose: week 3, overnight fast, saline 297
Protocol: Seven-week old male C57B1/6J-Lep ob/ob mice (Jackson Laboratory, Bar Harbor, Me.) were fed a diet with a fat content of about 22% and were subcutaneously injected with oligonucleotides at a dose of 25 mg/kg two times per week. A total of eight doses were administered. Glucose-6-phosphatase translocase antisense oligonucleotides used were ISIS 148985 (SEQ ID NO: 118) and ISIS 149008 (SEQ ID NO: 141). ISIS 116847 ([…]; incorporated herein as SEQ ID NO: 143), targeted to mouse PTEN, was used as a positive control. Saline-injected animals served as negative controls. Animals were sacrificed 48 hours after the last dose of oligonucleotide was administered, and liver triglycerides, liver glycogen, and target reduction in liver were measured.
The effects of target inhibition on glucose metabolism were evaluated in the ob/ob mice treated as described above. Routine clinical analyzer instruments (Olympus Clinical Analyzer, Melville, N.Y.) were used to measure plasma glucose. Plasma glucose was measured prior to antisense oligonucleotide treatment (week 0) and during the second and fourth week of treatment. Fasted glucose measurements were made during week 3 after an overnight (about 14 hours) fast. Data are presented as the average from seven animals per treatment group.

[4] = Liver triglycerides and liver glycogen in lean ob/ob+/- mice; conditions: 50 mg/kg s.c. twice weekly, five doses; for Liver glycogen levels: saline approximately 37
Protocol: (§1) Ob/ob mice have a mutation in the leptin gene which results in obesity and hyperglycemia. […] Seven-week old ob/ob+/−male mice were dosed twice weekly with 50 mg/kg of antisense oligonucleotide, given subcutaneously. A total of five doses were given. glucose-6-phosphatase translocase antisense oligonucleotides used were ISIS 148985 (SEQ ID NO: 118) and ISIS 149008 (SEQ ID NO: 141). Each treatment group was comprised of 4 animals. Animals were sacrificed 48 hours after the last dose of oligonucleotide was administered, and liver triglycerides, liver glycogen content, and target reduction in liver were measured.
Liver triglyceride levels are used to assess hepatic steatosis, or accumulation (poor clearing) of lipids in the liver. Tissue triglyceride levels were measured using a Triglyceride GPO assay from Roche Diagnostics (Indianapolis, Ind.). Liver triglycerides were about 19 mg/dL for saline treated lean mice and were about 14 mg/dL for ISIS 149008-treated lean mice.
Tissue glycogen was measured using the Glucose Trinder Reagent (Sigma-Aldrich, St. Louis, Mo.). Glycogen levels of lean mice treated with saline alone were approximately 37 mg/g of tissue. Mice treated with ISIS 149008 or 148985, the antisense inhibitors of glucose-6-phosphatase translocase, had glycogen levels of approximately 39 mg/g and 36 mg/g, respectively.

ob/ob mice [5] = experiment: Glycerol tolerance test in ob/ob mice; conditions: 25 mg/kg twice weekly, after 6th dose, glycerol 1 g/kg oral
Protocol: The mice described in Example 7 were evaluated for performance on glycerol tolerance tests after the 6th dose of saline or antisense oligonucleotides. This is a functional measure of glucose-6-phosphatase translocase inhibition; i.e., whether the conversion of […] to glucose is impaired by antisense inhibitors of glucose-6-phosphatase translocase.
Glycerol tolerance tests were performed after treatment with saline, ISIS 148985 (SEQ ID NO: 118), or ISIS 149008 (SEQ ID NO: 141). Glycerol was administered by oral gavage via an 18 g gavage needle at a dose of 1 g/kg. Plasma glucose levels were measured for 30, 60, 90 and 120 minutes post-challenge using an Ascencia Glucometer Elite XL (Bayer, Tarrytown, N.Y.) and plotted over time. Area under the curve (AUC) for each treatment graph was calculated.

[6] = system: glucose-6-phosphatase translocase mRNA; experiment: Target mRNA reduction in liver of lean ob/ob+/- mice; conditions: 50 mg/kg s.c. twice weekly, five doses
Protocol: as §1
Glucose-6-phosphatase translocase mRNA levels in liver were measured at the end of study using RiboGreen™ RNA quantification reagent (Molecular Probes, Inc. Eugene, Oreg.) as taught in previous examples above.
Glucose-6-phosphatase translocase mRNA levels were reduced by approximately 51% in lean mice treated with ISIS 148985, and by approximately 88% in lean mice treated with ISIS 149008, when compared to saline treatment. Thus the antisense compounds ISIS 149008 and ISIS 148985 were effective in reducing liver glucose-6-phosphatase translocase mRNA levels in vivo.

[7] = 25 mg/kg twice weekly 4 weeks (25 mg/mL [sic]), saline 0.8
[8] = 25 mg/kg twice weekly 4 weeks (25 mg/mL [sic]), saline 56
[9] = 25 mg/kg twice weekly 4 weeks (25 mg/mL [sic]), saline 59
[10] = 25 mg/kg twice weekly 4 weeks (25 mg/mL [sic]), saline 108
[11] = 25 mg/kg twice weekly 4 weeks (25 mg/mL [sic]), saline 152
[12] = 25 mg/kg twice weekly 4 weeks (25 mg/mL [sic]), saline 213
[13] = week 0 (prior to treatment), saline 339
[14] = dose 12.5 mg/mL [sic], twice weekly 4 weeks
[15] = dose printed 6 mg/mL, twice weekly 4 weeks

Row | Sequence | Free Fatty Acids [1, 7] | ALT [1, 8] | AST [1, 9] | Lactate [1, 10] | Cholesterol [1, 11] | Plasma Triglycerides [1, 12] | Glucose-6-phosphatase translocase mRNA levels in liver, reduction compared to saline [2] | fed plasma glucose (ob/ob mice [3]; [13]) | fed plasma glucose (ob/ob mice [3]; week 2, saline 401) | fasted plasma glucose (ob/ob mice [3]) | fed plasma glucose (ob/ob mice [3]; week 4, saline 372) | Liver glycogen levels [4] | decrease in AUC of plasma glucose compared to saline, glycerol tolerance test (ob/ob mice [5]) | Glucose-6-phosphatase translocase mRNA levels in liver, reduction compared to saline [6] | also measured
1 | CCTTCCCTGAAGGTTCCTCC (chemistry not given here) [ISIS 141923, scrambled control oligonucleotide, negative control, reference compound] | 0.9 mEq/L | 72 IU/L | 56 IU/L | 128 mg/dL | 167 mg/dL | 166 mg/dL | – | – | – | – | – | – | – | – | –
2 | CTGCTAGCCTCTGGATTTGA (chemistry not given here) [ISIS 116847, positive control oligonucleotide targeted to mouse PTEN, reference compound] | 0.8 mEq/L | 70 IU/L | 62 IU/L | 131 mg/dL | 161 mg/dL | 166 mg/dL | approximately 36% | approximately 339 mg/dL | ~230 mg/dL | approximately 286 mg/dL | ~188 mg/dL | – | – | – | –
3 | GCTCCATAGCGAGGACTCGA (chemistry not given here) [ISIS 148985] | 1.1 mEq/L | 73 IU/L | 48 IU/L | 105 mg/dL | 164 mg/dL | 202 mg/dL | approximately 52% | approximately 348 mg/dL | ~315 mg/dL | approximately 293 mg/dL | ~241 mg/dL | ~36 mg/g | did not show significant decrease in AUC | approximately 51% | –
4 | TATACAAGTCGGTTTGCCCT (chemistry not given here) [ISIS 149008] | 0.9 mEq/L | 68 IU/L | 55 IU/L | 129 mg/dL | 167 mg/dL | 197 mg/dL | approximately 87% | approximately 344 mg/dL | ~249 mg/dL | approximately 237 mg/dL | ~153 mg/dL | approximately 39 mg/g | approximately 30% | approximately 88% | Liver Triglycerides ([4]; saline about 19): about 14 mg/dL; ALT [1, 14]: 64 IU/L; AST [1, 14]: 56 IU/L; Cholesterol [1, 14]: 172 mg/dL; Free Fatty Acids [1, 14]: 1.0 mEq/L; Lactate [1, 14]: 127 mg/dL; Plasma Triglycerides [1, 14]: 247 mg/dL; ALT [1, 15]: 59 IU/L; AST [1, 15]: 49 IU/L; Cholesterol [1, 15]: 158 mg/dL; Free Fatty Acids [1, 15]: 0.9 mEq/L; Lactate [1, 15]: 125 mg/dL; Plasma Triglycerides [1, 15]: 205 mg/dL
